In the NIST ThermoML archive (doi:10.1016/j.jct.2014.01.004):
Numbers after ± are expanded uncertainties.

Details: for viscosity / speed of sound / mass density: 101.33 kPa, Liquid; for viscosity: Falling or rolling sphere viscometry; for speed of sound: Sing-around technique in a fixed-path interferometer; for mass density: Vibrating tube method; for Glass transition temperature: DTA

CC(=O)[O-].[NH3+]CCCO [3-hydroxypropylammonium acetate]
Details	Glass transition temperature [°C]	mass density [kg/m3]	speed of sound [m/s]	viscosity [mPa·s]
–	-26.00 ± 4	–	–	–
293.15 K	–	1114.58 ± 6.7	1779.8 ± 5.2	4261.7 ± 650
298.15 K	–	1112.02 ± 6.7	1770.8 ± 5.2	2827 ± 390
303.15 K	–	1109.46 ± 6.7	1761.9 ± 5.2	1937 ± 240
308.15 K	–	1106.91 ± 6.7	1753.3 ± 5.2	1348.5 ± 150
313.15 K	–	1104.36 ± 6.6	1745.2 ± 5.2	970.9 ± 100
318.15 K	–	1101.8 ± 6.6	1736.4 ± 5.2	714.44 ± 66
323.15 K	–	1099.24 ± 6.5	1727.8 ± 5.2	526 ± 44
328.15 K	–	1096.68 ± 6.5	1719.3 ± 5.2	400.11 ± 30
333.15 K	–	1094.13 ± 6.5	1710.3 ± 5.2	305.97 ± 20
338.15 K	–	1091.59 ± 6.5	1702.8 ± 5.2	238.21 ± 14
343.15 K	–	1089.03 ± 6.4	1693.6 ± 5.2	190.4 ± 9.9

O=C[O-].[NH3+]CCCO [3-hydroxypropylammonium formate]
Details	Glass transition temperature [°C]	mass density [kg/m3]	speed of sound [m/s]	viscosity [mPa·s]
–	-24.00 ± 4	–	–	–
293.15 K	–	1148.29 ± 7.2	1824.3 ± 5.2	339.04 ± 23
298.15 K	–	1145.84 ± 7.1	1816.3 ± 5.2	257.15 ± 16
303.15 K	–	1143.39 ± 7.1	1808.3 ± 5.2	198.39 ± 11
308.15 K	–	1140.95 ± 7.1	1800.5 ± 5.2	154.49 ± 7.3
313.15 K	–	1138.53 ± 7	1792.3 ± 5.2	122.56 ± 5.2
318.15 K	–	1136.12 ± 7	1785.2 ± 5.2	98.17 ± 3.8
323.15 K	–	1133.73 ± 7	1776.4 ± 5.2	79.84 ± 2.8
328.15 K	–	1131.34 ± 7	1768.3 ± 5.2	65.37 ± 2.2
333.15 K	–	1128.97 ± 6.9	1760.4 ± 5.2	53.98 ± 1.7
338.15 K	–	1126.61 ± 6.9	1752.5 ± 5.2	45.36 ± 1.5
343.15 K	–	1124.25 ± 6.9	1744.7 ± 5.2	38.38 ± 1.3

O=C([O-])C(F)(F)F.[NH3+]CCCO [3-hydroxypropylammonium trifluoroacetate]
Details	Glass transition temperature [°C]	mass density [kg/m3]	speed of sound [m/s]	viscosity [mPa·s]
–	-28.00 ± 4	–	–	–
293.15 K	–	1311.44 ± 19	1487.9 ± 7.1	1430.2 ± 170
298.15 K	–	1307.81 ± 19	1476.5 ± 7.1	970.33 ± 100
303.15 K	–	1304.2 ± 19	1465.5 ± 7.1	677.32 ± 64
308.15 K	–	1300.58 ± 19	1454.9 ± 7.1	483.03 ± 41
313.15 K	–	1296.96 ± 19	1444.5 ± 7.1	352.31 ± 26
318.15 K	–	1293.34 ± 18	1434.3 ± 7.1	262.07 ± 17
323.15 K	–	1289.72 ± 18	1424.2 ± 7.1	198.79 ± 12
328.15 K	–	1286.1 ± 18	1413.9 ± 7.1	153.05 ± 8.1
333.15 K	–	1282.49 ± 18	1403.6 ± 7.1	119.86 ± 5.8
338.15 K	–	1278.88 ± 18	1393.2 ± 7.1	94.92 ± 4.3
343.15 K	–	1275.25 ± 18	1382.8 ± 7.1	76.72 ± 3.3
